Values of other authors as cited in paper PMC7898221 (Drug Design, Development and Therapy, 2021).

Structure (SMILES): N[C@@H](CC(=O)N1CCc2c(nc(C(F)(F)F)nc2C(F)(F)F)C1)CN1CC(F)(F)CCC1=O [Gemigliptin]
- Time to maximum plasma concentration (Tmax) (after dosing): 0.5 to 3.0 h
- Fraction metabolized by CYP3A4 into LC15-0636 (CYP3A4): ~ 10%

Structure (SMILES): CC(C)c1nc(N(C)S(C)(=O)=O)nc(-c2ccc(F)cc2)c1/C=C/[C@@H](O)C[C@@H](O)CC(=O)O [Rosuvastatin]
- Terminal t1/2: 12.3 ± 5.8 h
- Tmax (after dosing): 1.0 to 5.0 h
